{"source": "patent US8952034B2", "about": "“Fused heterocyclic compounds as ion channel modulators” (Gilead Sciences, Inc., priority 2009, dated 2015)", "data": [{"target": "wild-type human cardiac sodium channel, hNav1.5 (Homo sapiens, UniProt Q14524)", "sequence (Q14524 whole entry)": "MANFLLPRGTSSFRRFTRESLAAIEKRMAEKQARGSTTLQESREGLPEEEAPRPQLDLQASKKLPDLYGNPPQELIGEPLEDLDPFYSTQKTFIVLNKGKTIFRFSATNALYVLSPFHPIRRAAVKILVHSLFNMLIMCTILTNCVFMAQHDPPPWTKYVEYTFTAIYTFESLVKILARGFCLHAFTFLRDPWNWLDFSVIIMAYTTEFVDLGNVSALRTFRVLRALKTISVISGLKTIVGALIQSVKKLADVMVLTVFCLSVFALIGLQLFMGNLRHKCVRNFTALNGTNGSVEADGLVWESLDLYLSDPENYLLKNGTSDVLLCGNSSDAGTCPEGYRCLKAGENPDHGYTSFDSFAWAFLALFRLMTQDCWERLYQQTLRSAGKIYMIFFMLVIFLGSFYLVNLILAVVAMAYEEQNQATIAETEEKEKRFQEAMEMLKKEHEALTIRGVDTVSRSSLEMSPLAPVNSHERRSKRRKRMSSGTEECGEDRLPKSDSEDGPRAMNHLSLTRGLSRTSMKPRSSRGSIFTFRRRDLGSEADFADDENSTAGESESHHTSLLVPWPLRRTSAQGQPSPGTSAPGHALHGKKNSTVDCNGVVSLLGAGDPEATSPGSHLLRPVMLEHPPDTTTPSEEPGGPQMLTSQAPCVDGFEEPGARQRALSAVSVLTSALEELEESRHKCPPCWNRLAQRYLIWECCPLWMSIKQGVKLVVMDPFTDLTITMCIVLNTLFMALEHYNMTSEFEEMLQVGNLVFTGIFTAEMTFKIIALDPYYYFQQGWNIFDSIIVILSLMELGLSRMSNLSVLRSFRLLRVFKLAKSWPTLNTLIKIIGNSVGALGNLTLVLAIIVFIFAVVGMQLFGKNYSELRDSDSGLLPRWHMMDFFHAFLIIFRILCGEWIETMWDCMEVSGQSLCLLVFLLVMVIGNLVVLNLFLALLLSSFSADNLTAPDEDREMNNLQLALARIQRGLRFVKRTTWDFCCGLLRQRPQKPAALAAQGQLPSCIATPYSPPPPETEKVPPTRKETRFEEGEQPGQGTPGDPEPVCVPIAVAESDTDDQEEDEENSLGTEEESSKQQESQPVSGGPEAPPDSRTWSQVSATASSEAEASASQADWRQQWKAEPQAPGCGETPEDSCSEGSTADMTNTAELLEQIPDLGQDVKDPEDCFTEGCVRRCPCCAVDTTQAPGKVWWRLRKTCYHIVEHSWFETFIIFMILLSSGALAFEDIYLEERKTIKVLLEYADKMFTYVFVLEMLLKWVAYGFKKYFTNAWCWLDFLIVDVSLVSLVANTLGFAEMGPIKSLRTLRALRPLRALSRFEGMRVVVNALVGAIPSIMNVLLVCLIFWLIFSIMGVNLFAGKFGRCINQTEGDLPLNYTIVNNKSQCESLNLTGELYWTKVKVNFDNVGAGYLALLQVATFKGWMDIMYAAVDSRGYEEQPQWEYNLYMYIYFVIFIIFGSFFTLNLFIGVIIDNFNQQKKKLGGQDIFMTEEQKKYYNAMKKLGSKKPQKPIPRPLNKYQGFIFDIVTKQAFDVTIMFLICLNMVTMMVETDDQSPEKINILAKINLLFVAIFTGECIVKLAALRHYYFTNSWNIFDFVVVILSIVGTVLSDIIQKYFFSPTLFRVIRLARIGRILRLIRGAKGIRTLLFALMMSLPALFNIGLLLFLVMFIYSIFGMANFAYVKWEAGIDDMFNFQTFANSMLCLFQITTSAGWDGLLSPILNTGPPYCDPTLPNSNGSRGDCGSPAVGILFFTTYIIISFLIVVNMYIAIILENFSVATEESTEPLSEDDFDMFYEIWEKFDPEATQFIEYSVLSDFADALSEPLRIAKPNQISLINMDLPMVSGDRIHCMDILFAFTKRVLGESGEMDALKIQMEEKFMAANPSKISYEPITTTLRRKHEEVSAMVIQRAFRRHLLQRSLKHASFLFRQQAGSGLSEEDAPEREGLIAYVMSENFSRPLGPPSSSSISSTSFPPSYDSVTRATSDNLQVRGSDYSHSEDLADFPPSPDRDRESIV", "assay": "Late INa screening assay (automated whole cell patch clamp, PatchXpress)", "assay_type": "cell-based", "conditions": "compound at 1 μM; HEK293 cells expressing hNav1.5; late INa generated with 10 μM Tefluthrin (or 50 nM ATX II); read-out: LateINa_1 uM (percent block of late INa)", "in_short": "(§1)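 Late sodium current through wild-type human hNav1.5 stably expressed in HEK293 cells (no beta subunits) was recorded by automated whole-cell patch clamp on a PatchXpress 7000A at 24-27° C. Late INa was induced with 10 μM Tefluthrin or 50 nM ATX II. Cells were stepped from −120 mV to −20 mV for 250 ms at 0.1 Hz, and percent block was normalized to current in Na-free extracellular solution.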", "units": {"inhibition at 1 µM": "%"}, "values": [{"smiles": "CS(=O)(=O)NCC(F)(F)c1nnc2ccc(-c3ccc(OC(F)(F)F)cc3)cn12", "note": "[BHN-175, N-(2,2-difluoro-2-{6-[4-(trifluoromethoxy)phenyl][1,2,4]triazolo[4,3-a]pyridin-3-yl}ethyl)methanesulfonamide]", "inhibition at 1 µM": 16.3}, {"smiles": "Clc1ccc(Oc2ccc(-c3ccc4nnnn4n3)cc2)cc1", "note": "[BHN-270, 6-[4-(4-chlorophenoxy)phenyl]tetrazolo[1,5-b]pyridazine]", "inhibition at 1 µM": 21.7}, {"smiles": "FC(F)(F)Oc1ccc(-c2ccc3nnc(C(F)(F)COCc4ccccn4)n3c2)cc1", "note": "[BHN-172, 3-[1,1-difluoro-2-(pyridin-2-ylmethoxy)ethyl]-6-[4-(trifluoromethoxy)phenyl][1,2,4]triazolo[4,3-a]pyridine]", "inhibition at 1 µM": 30.7}, {"smiles": "FC(F)(F)Oc1ccc(-c2ccc3nnc(C(F)(F)OCc4ccc5c(c4)OC(F)(F)O5)n3c2)cc1", "note": "[BHN-225, 3-{[(2,2-difluoro-1,3-benzodioxol-5-yl)methoxy](difluoro)methyl}-6-[4-(trifluoromethoxy)phenyl][1,2,4]triazolo[4,3-a]pyridine]", "inhibition at 1 µM": 63}, {"smiles": "Cc1cc(OC(F)(F)F)ccc1-c1ccc2nnc(C(C)C)n2n1", "note": "[BHN-33, 6-[2-methyl-4-(trifluoromethoxy)phenyl]-3-(propan-2-yl)[1,2,4]triazolo[4,3-b]pyridazine]", "inhibition at 1 µM": 59.2}, {"smiles": "FC(F)(F)Oc1ccc(-c2ccc3nnc(Oc4ccccc4)n3c2)cc1", "note": "[BHN-143, 3-phenoxy-6-[4-(trifluoromethoxy)phenyl][1,2,4]triazolo[4,3-a]pyridine]", "inhibition at 1 µM": 81.4}, {"smiles": "CC(O)COC(F)(F)c1nnc2ccc(-c3ccc(OC(F)(F)F)cc3)cn12", "note": "(stereo not shown) [BHN-158, 1-(difluoro{6-[4-(trifluoromethoxy)phenyl][1,2,4]triazolo[4,3-a]pyridin-3-yl}methoxy)propan-2-ol]", "inhibition at 1 µM": 32.9}, {"smiles": "OCC(F)(F)c1nnc2ccc(C#Cc3ccc(C(F)(F)F)cc3)cn12", "note": "[BHN-198, 2,2-difluoro-2-(6-{[4-(trifluoromethyl)phenyl]ethynyl}[1,2,4]triazolo[4,3-a]pyridin-3-yl)ethanol]", "inhibition at 1 µM": 17.4}, {"smiles": "FC(F)(F)Oc1ccc(-c2ccc3nnc(C(F)(F)F)n3c2)c2cccnc12", "note": "[BHN-108, 8-(trifluoromethoxy)-5-[3-(trifluoromethyl)[1,2,4]triazolo[4,3-a]pyridin-6-yl]quinoline]", "inhibition at 1 µM": 45.7}, {"smiles": "Fc1ccccc1Oc1ccc(-c2ccc3nnc(C(F)(F)F)n3c2)cc1", "note": "[BHN-112, 6-[4-(2-fluorophenoxy)phenyl]-3-(trifluoromethyl)[1,2,4]triazolo[4,3-a]pyridine]", "inhibition at 1 µM": 32.9}, {"smiles": "FC(F)(F)Oc1ccc(-c2ccc3nnc(C(F)(F)OCc4ccccn4)n3c2)cc1", "note": "[BHN-211, 3-[difluoro(pyridin-2-ylmethoxy)methyl]-6-[4-(trifluoromethoxy)phenyl][1,2,4]triazolo[4,3-a]pyridine]", "inhibition at 1 µM": 57.4}, {"smiles": "CC(=O)c1ccc(-c2ccc3nnc(C(F)(F)F)n3c2)cc1", "note": "[BHN-154, 1-(4-(3-(trifluoromethyl)-[1,2,4]triazolo[4,3-a]pyridin-6-yl)phenyl)ethanone]", "inhibition at 1 µM": 19.2}, {"smiles": "FC(F)(F)c1nnc2ccc(-c3ccc(Nc4ccccc4)cc3)cn12", "note": "[BHN-114, N-phenyl-4-[3-(trifluoromethyl)[1,2,4]triazolo[4,3-a]pyridin-6-yl]aniline]", "inhibition at 1 µM": 37.4}, {"smiles": "FC(F)(F)c1nnc2ccc(-c3ccc(-c4ccccc4)cc3)cn12", "note": "[BHN-57, 6-(biphenyl-4-yl)-3-(trifluoromethyl)[1,2,4]triazolo[4,3-a]pyridine]", "inhibition at 1 µM": 45.8}, {"smiles": "CC(C)c1nnc2ccc(-c3ccc(Oc4ccccc4)cc3)nn12", "note": "[BHN-32, 6-(4-phenoxyphenyl)-3-(propan-2-yl)[1,2,4]triazolo[4,3-b]pyridazine]", "inhibition at 1 µM": 63.4}, {"smiles": "COCC(F)(F)c1nnc2ccc(-c3cc(F)c(Oc4ccccc4)c(F)c3)cn12", "note": "[BHN-233, 3-(1,1-difluoro-2-methoxyethyl)-6-(3,5-difluoro-4-phenoxyphenyl)[1,2,4]triazolo[4,3-a]pyridine]", "inhibition at 1 µM": 31.4}, {"smiles": "FC(F)(F)Oc1ccc(-c2ccc3nnnn3c2)cc1", "note": "[BHN-98, 6-[4-(trifluoromethoxy)phenyl]tetrazolo[1,5-a]pyridine]", "inhibition at 1 µM": 54.1}, {"smiles": "FC(F)c1nnc2ccc(-c3ccc(OCC(F)(F)F)nc3)nn12", "note": "[BHN-237, 3-(difluoromethyl)-6-[6-(2,2,2-trifluoroethoxy)pyridin-3-yl][1,2,4]triazolo[4,3-b]pyridazine]", "inhibition at 1 µM": 44.7}, {"smiles": "N#CC1(c2ccc(-c3ccc4nnc(C(F)(F)F)n4c3)cc2)CC1", "note": "[BHN-195, 1-{4-[3-(trifluoromethyl)[1,2,4]triazolo[4,3-a]pyridin-6-yl]phenyl}cyclopropanecarbonitrile]", "inhibition at 1 µM": 47.3}, {"smiles": "O=[N+]([O-])c1ccc(-c2ccc3nnc(C(F)(F)F)n3c2)c(Cl)c1", "note": "[BHN-292, 6-(2-chloro-4-nitrophenyl)-3-(trifluoromethyl)[1,2,4]triazolo[4,3-a]pyridine]", "inhibition at 1 µM": 26}, {"smiles": "CCc1nnc2ccc(-c3ccc(Oc4ccccc4)cc3)nn12", "note": "[BHN-38, 3-ethyl-6-(4-phenoxyphenyl)[1,2,4]triazolo[4,3-b]pyridazine]", "inhibition at 1 µM": 54.5}, {"smiles": "O=C(NCC(F)(F)c1nnc2ccc(-c3ccc(OC(F)(F)F)cc3)cn12)c1ccccn1", "note": "[BHN-184, N-(2,2-difluoro-2-{6-[4-(trifluoromethoxy)phenyl][1,2,4]triazolo[4,3-a]pyridin-3-yl}ethyl)pyridine-2-carboxamide]", "inhibition at 1 µM": 29.8}]}, {"target": "wild-type human cardiac sodium channel, hNav1.5 (Homo sapiens, UniProt Q14524)", "assay": "Late INa screening assay (automated whole cell patch clamp, PatchXpress)", "assay_type": "cell-based", "conditions": "compound at 10 μM; HEK293 cells expressing hNav1.5; late INa generated with 10 μM Tefluthrin (or 50 nM ATX II); read-out: LateINa_10 uM (percent block of late INa)", "in_short": "as §1", "units": {"inhibition at 10 µM": "%"}, "values": [{"smiles": "FC(F)(F)Oc1ccc(-c2ccc3nnc(C(F)(F)F)n3c2)cc1", "note": "[BHN-335, 6-[4-(trifluoromethoxy)phenyl]-3-(trifluoromethyl)[1,2,4]triazolo[4,3-a]pyridine]", "inhibition at 10 µM": 87.7}, {"smiles": "c1ccc(Oc2ccc(-c3ccc4nnc(-c5ccc(-c6nn[nH]n6)cc5)n4n3)cc2)cc1", "note": "[BHN-50, 6-(4-phenoxyphenyl)-3-[4-(2H-tetrazol-5-yl)phenyl][1,2,4]triazolo[4,3-b]pyridazine]", "inhibition at 10 µM": 31}, {"smiles": "Cc1nc2ccc(-c3cccc(Oc4ccccc4)c3)cn2n1", "note": "[BHN-348, 2-methyl-6-(3-phenoxyphenyl)[1,2,4]triazolo[1,5-a]pyridine]", "inhibition at 10 µM": 65.7}, {"smiles": "Cc1cc(OC(F)(F)F)ccc1-c1ccc2nnc(C(C)C)n2n1", "note": "[BHN-33, 6-[2-methyl-4-(trifluoromethoxy)phenyl]-3-(propan-2-yl)[1,2,4]triazolo[4,3-b]pyridazine]", "inhibition at 10 µM": 75.9}, {"smiles": "FC(F)(F)Oc1ccc(-c2ccc3nnc(C(F)(F)F)n3c2)c2cccnc12", "note": "[BHN-108, 8-(trifluoromethoxy)-5-[3-(trifluoromethyl)[1,2,4]triazolo[4,3-a]pyridin-6-yl]quinoline]", "inhibition at 10 µM": 63.1}, {"smiles": "CC(C)(C)c1nnc2ccc(-c3ccc(OCC(F)(F)F)cc3)nn12", "note": "[BHN-36, 3-tert-butyl-6-[4-(2,2,2-trifluoroethoxy)phenyl][1,2,4]triazolo[4,3-b]pyridazine]", "inhibition at 10 µM": 64.5}, {"smiles": "FC(F)(F)c1nnc2ccc(-c3ccc(C4CC4)nc3)cn12", "note": "[BHN-88, 6-(6-cyclopropylpyridin-3-yl)-3-(trifluoromethyl)[1,2,4]triazolo[4,3-a]pyridine]", "inhibition at 10 µM": 36}, {"smiles": "CN1CCN(Cc2cc(-c3ccc4nnc(C(F)(F)F)n4c3)ccc2OC(F)(F)F)CC1", "note": "[BHN-81, 6-{3-[(4-methylpiperazin-1-yl)methyl]-4-(trifluoromethoxy)phenyl}-3-(trifluoromethyl)[1,2,4]triazolo[4,3-a]pyridine]", "inhibition at 10 µM": 30.3}, {"smiles": "FC(F)(F)c1nnc2ccc(-c3ccc(-c4ccccc4)cc3)cn12", "note": "[BHN-57, 6-(biphenyl-4-yl)-3-(trifluoromethyl)[1,2,4]triazolo[4,3-a]pyridine]", "inhibition at 10 µM": 39.5}, {"smiles": "CC(C)c1nnc2ccc(-c3ccc(Oc4ccccc4)cc3)nn12", "note": "[BHN-32, 6-(4-phenoxyphenyl)-3-(propan-2-yl)[1,2,4]triazolo[4,3-b]pyridazine]", "inhibition at 10 µM": 83.4}, {"smiles": "CS(=O)(=O)Nc1ccc(-c2nnc3ccc(-c4ccc(OC(F)(F)F)cc4)cn23)cc1", "note": "[BHN-75, N-(4-{6-[4-(trifluoromethoxy)phenyl][1,2,4]triazolo[4,3-a]pyridin-3-yl}-phenyl)methanesulfonamide]", "inhibition at 10 µM": 30.1}, {"smiles": "CCc1nnc2ccc(-c3ccc(Oc4ccccc4)cc3)nn12", "note": "[BHN-38, 3-ethyl-6-(4-phenoxyphenyl)[1,2,4]triazolo[4,3-b]pyridazine]", "inhibition at 10 µM": 79.3}]}]}
